target: Poly [ADP-ribose] polymerase 1 (Homo sapiens, UniProt P09874); test: PARP ELISA Assay; conditions: pH 8; 22 °C
Procedure: The assay was performed in 96-well ELISA plates according to instructions provided with a commercially available PARP inhibition assay kit (Trevigen, Gaithersburg, MD). After incubation, incorporated biotin was detected by peroxidase-conjugated streptavidin and TACS Sapphire substrate.

Chain of Poly [ADP-ribose] polymerase 1 (P09874 whole entry): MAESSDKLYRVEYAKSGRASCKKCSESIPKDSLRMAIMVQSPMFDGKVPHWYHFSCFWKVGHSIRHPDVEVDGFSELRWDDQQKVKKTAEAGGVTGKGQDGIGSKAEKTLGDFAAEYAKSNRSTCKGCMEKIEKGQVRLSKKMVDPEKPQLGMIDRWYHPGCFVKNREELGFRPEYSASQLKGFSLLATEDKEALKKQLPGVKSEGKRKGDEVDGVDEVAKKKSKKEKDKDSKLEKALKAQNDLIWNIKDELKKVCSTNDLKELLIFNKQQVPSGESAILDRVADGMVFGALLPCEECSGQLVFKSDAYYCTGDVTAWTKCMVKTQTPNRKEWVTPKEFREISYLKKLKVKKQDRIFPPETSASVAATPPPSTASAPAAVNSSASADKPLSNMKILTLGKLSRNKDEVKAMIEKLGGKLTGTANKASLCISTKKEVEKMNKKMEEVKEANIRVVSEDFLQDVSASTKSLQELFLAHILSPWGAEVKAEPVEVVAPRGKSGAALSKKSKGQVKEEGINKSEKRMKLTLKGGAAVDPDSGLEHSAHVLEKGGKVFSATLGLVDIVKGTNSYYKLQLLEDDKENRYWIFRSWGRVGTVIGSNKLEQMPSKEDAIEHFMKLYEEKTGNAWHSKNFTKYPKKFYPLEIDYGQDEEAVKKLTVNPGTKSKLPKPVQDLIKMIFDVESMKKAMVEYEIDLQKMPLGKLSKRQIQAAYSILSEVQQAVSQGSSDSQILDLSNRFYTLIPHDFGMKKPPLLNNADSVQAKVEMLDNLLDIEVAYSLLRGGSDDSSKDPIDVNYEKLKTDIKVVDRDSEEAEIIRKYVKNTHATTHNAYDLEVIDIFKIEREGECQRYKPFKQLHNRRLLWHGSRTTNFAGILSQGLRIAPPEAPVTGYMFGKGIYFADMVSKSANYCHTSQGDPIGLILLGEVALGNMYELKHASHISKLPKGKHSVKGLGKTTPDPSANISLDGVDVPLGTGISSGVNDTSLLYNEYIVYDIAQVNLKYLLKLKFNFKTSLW

Point of comparison: `C[N+]1(CCCNS(=O)(=O)c2ccc3c(c2)Cc2c-3[nH]c(=O)c3ccccc23)CCOCC1` [4-methyl-4-[3-({8-oxo-9-azatetracyclo[8.7.0.0^{2,7}.0^{11,16}]heptadeca-1(10),2(7),3,5,11(16),12,14-heptaene-14-}sulfonamido)propyl]morpholin-4-ium iodide], IC50 800 nM. Against it:
- O=c1[nH]c2c(c3ccccc13)Cc1cc(S(=O)(=O)NN3CCOCC3)c(F)cc1-2 [13-fluoro-N-(morpholin-4-yl)-8-oxo-9-azatetracyclo[8.7.0.0^{2,7}.0^{11,16}]heptadeca-1(10),2(7),3,5,11(16),12,14-heptaene-14-sulfonamide] — 1.8-fold lower, 450 nM
- O=C(CCCN1CCOCC1)Nc1ccc2c(c1)-c1[nH]c(=O)c3ccccc3c1C2 [4-(morpholin-4-yl)-N-{8-oxo-9-azatetracyclo[8.7.0.0^{2,7}.0^{11,16}]heptadeca-1(10),2(7),3,5,11(16),12,14-heptaen-13-yl}butanamide] — 2-fold lower, 400 nM

— BindingDB's records for doi:10.1021/jm0502891 (Inotek Pharmaceuticals, 2005)
